Key:
Type in all cases: cell-based, human
HeLa cells [1] = assay: MTT cytotoxicity assay, HeLa; details: for IC50: MTT; for Selectivity index (SI): IC50 healthy cells (MRC-5)/IC50 tumor cells; for Cytotoxicity range: concentration range 1–100 μM
Method: (§1) To examine and compare the antiproliferative activities of four enones, the cytotoxicity of the compounds was assessed by the 3-(4,5-dimethylthiazol-2-yl)-2,5-diphenyltetrazolium bromide (MTT) assay[9] in, colon cancer cells (HCT-116), cervical cancer cell line (HeLa) and human fibroblast lung cell line (MRC-5) that was used as a healthy control cell line. After trypsinization, seeded (5 × 10^3 cells per well in 96-well plates) cells were treated with different concentrations of the investigated enones (1, 3, 10, 30, and 100 μM) during 48 and 72 h period incubation period +37 °C and 5–6.5% CO2. After the incubation period, the medium was removed and MTT solution (5 mg ml^−1) was added to the wells.
(§2) After a 3 hour incubation with the MTT solution, the resulting formazan crystals were dissolved in DMSO (67-68-5, Merck). Absorbance was subsequently measured at 595 nm using a microplate reader (Zenith 3100, Anthos Labtech Instruments). The percentage of cytotoxic cells was determined using the formula: cytotoxicity (%) = (1 − (exp. group (ABS))/(control group (ABS)) × 100). IC50 values were calculated using GraphPad Prism 10 software. The selectivity index (SI) was determined using the formula: SI?IC50 value for healthy cells/IC50 value for tumor cells.[9]

MRC-5 cells = assay: MTT cytotoxicity assay, MRC-5 healthy control cells
Method: as §1, §2

HCT-116 cells [2] = assay: MTT cytotoxicity assay, HCT-116; details: for IC50: MTT; for percentage of cytotoxic HCT-116 cells compared to HeLa cells (fold) / percentage of cytotoxic HCT-116 cells compared to control MRC-5 cells (fold): 48 h, over the applied doses; for Cytotoxicity range: concentration range 1–100 μM; for Selectivity index (SI): IC50 healthy cells (MRC-5)/IC50 tumor cells
Method: as §1, §2

HeLa cells [3] = assay: Annexin V-FITC/7-AAD apoptosis flow cytometry, HeLa; details: IC50 concentration, 48 h
Method: (§3) The type of cell death was assessed using flow cytometry using FITC Annexin V Apoptosis Detection Kit with 7-AAD (640922, Bio legend).[8] […] After treatment, cells were harvested, washed with PBS (resuspended in 100 μl of ice-cold 1X binding buffer), stained (20 μl of 7-AAD and 10 μl of Annexin V-FITC), and incubated in the dark for 15 min at +4 °C. After incubation, 400 μl of binding buffer was added and the samples were analyzed using flow cytometer Cytomics FC500 (Beckman Coulter, USA). Data analysis was performed using FlowJo Software and presented with histogram and dot plots.

HCT-116 cells [4] = assay: Cell cycle analysis (PI, flow cytometry), HCT-116; details: IC50 concentration, 48 h; control 27.4%
Method: (§4) After treatment of HCT-116 and HeLa cells with enones, cells were harvested, washed with PBS, and fixed in 70% ice-cold ethanol at +4 °C overnight.[10] The cells were then pelleted, resuspended in 1 ml PBS containing RNAse A (12091021, Sigma Aldrich), and incubated for 30 min at 37 °C. A staining solution containing propidium iodide (1 mg PI per ml PBS) (B7758, Biotrend) was added to cells, followed by 15 min incubation in the dark. Cells were analyzed by flow cytometer Cytomics FC500. DNA content was determined using Flowing Software and cell cycle distribution was presented by graph (histograms).

[5] = system: Bax and Bcl-2 in HCT-116 cells; assay: Flow cytometric analysis of Bax and Bcl-2 expression, HCT-116; details: HCT-116, IC50 concentration, 48 h, from MFI
Method: (§5) Cells were washed with PBS, fixed, permeabilized using Fixation and Permeabilization Kit (eBioscience), and stained separately for Bcl-2, Bax, and cleaved-caspase-3.[8,9] Permeabilized cells were incubated with primary antibodies: mouse anti-human-Bcl-2 (DC21, sc-783, Santa Cruz Biotech. Inc.), mouse anti-human Bax (N20, sc-493, Santa Cruz Biotech. Inc.), and anti-cleaved caspase-3 (Cell signaling Technology 9661). Following antibody incubation, cells were washed and incubated with secondary Alexa 488-conjugated antibodies (ab185015, Abcam, United Kingdom) for 30 minutes. After an additional wash with PBS, flow cytometry analysis was performed.
(§6) Data were analyzed using FlowJo Software. The expression of Bcl-2 and Bax proteins was quantified as mean fluorescence intensity (MFI). The results were presented with bar graphs. Bax/Bcl-2 index was calculated using the formula […]. The percentage of cells expressing active caspase-3 (MFI) was presented in histograms.

[6] = system: active caspase-3 in HeLa cells; assay: Flow cytometric analysis of active caspase-3, HeLa; details: IC50 concentration, 48 h, vs control
Method: as §5, §6

[7] = system: cytochrome c in HCT-116 cells; assay: Cytochrome c localization by immunofluorescence, HCT-116; details: IC50 concentration, 48 h
Method: After 48 hours of treatment, immunofluorescence analysis of cytochrome c distribution and expression in treated cells was performed using glass coverslips.[10] Following the treatment, cells were washed with PBS, fixed in 4% formaldehyde for 20 min, and permeabilized with 0.2% Tween-20. Blocking was performed using a buffer containing 0.1% Tween-20 and 10% FBS for 30 min. The cells were then incubated for 1 hour at room temperature with a monoclonal mouse anti-human cytochrome c antibody (1:100, G7421, Promega, USA,)
Subsequently, the cells were incubated for 30 minutes with a goat anti-mouse FITC (1:200, diluted in blocking buffer), washed, and images were acquired using an inverted fluorescence microscope (Olympus IX50). Image analysis was performed using ImageJ software.

[8] = system: Bax and Bcl-2 in HeLa cells; assay: Flow cytometric analysis of Bax and Bcl-2 expression, HeLa; details: IC50 concentration, 48 h; for Bax/Bcl-2 ratio: from MFI; for Bcl-2 protein expression vs control cells: p < 0.05
Method: as §5, §6

[9] = system: mitochondrial membrane potential (ΔΨm) in HeLa cells; assay: Mitochondrial membrane potential (ΔΨm) JC-10 analysis, HeLa; details: IC50 concentration, 48 h
Method: (§7) Changes in the ΔΨm caused by 48 hours of enones treatment, were assessed using JC-10 dye.[10]. (Enzo Life Sciences, Farmingdale, NY, USA).
(§8) In healthy cells, JC-10 dye accumulates in the mitochondria as red fluorescent aggregates. However, upon cell damage, changes in ΔΨm occur and result in dislocation of JC-10 from the mitochondria to the cytosol and the monomerization of aggregates, shifting fluorescence from red to green. Cells were cultured in 24-well plate (3 × 10^4 cells per well) overnight in the incubator (5% CO2, 37 °C). […] Following treatment, cells were washed with warm 1xPBS and incubated with JC-10 dye (2.5 μM in warm PBS) at 5% CO2, 37 °C for 20 minutes. Cells were then washed with 1xPBS and observed using an Olympus IX50 inverted fluorescence microscope. Images were captured and analyzed using ImageJ software. The ratio of fluorescence emissions at 525 and 590 nm was used for quantification analysis.

HCT-116 cells [10] = assay: Annexin V-FITC/7-AAD apoptosis flow cytometry, HCT-116; details: IC50 concentration, 48 h
Method: as §3

[11] = system: mitochondrial membrane potential (ΔΨm) in HCT-116 cells; assay: Mitochondrial membrane potential (ΔΨm) JC-10 analysis, HCT-116; details: IC50 concentration, 48 h
Method: as §7, §8

[12] = system: active caspase-3 in HCT-116 cells; assay: Flow cytometric analysis of active caspase-3, HCT-116; details: IC50 concentration, 48 h, vs control
Method: as §5, §6

HeLa cells [13] = assay: Cell cycle analysis (PI, flow cytometry), HeLa; details: IC50 concentration, 48 h; control 29.9%
Method: as §4

[14] = Homo sapiens, MRC5, MRC-5, 48 h
[15] = Homo sapiens, MRC5, MRC-5, 72 h

Row | SMILES | total percentage of apoptotic HeLa cells (HeLa cells [3]) [%] | % OF HCT-116 CELLS, G2/M (HCT-116 cells [4]) [%] | Selectivity index (SI) (HeLa cells [1]; 48 h) | Cytotoxicity range (HeLa cells [1]; 48 h) | Cytotoxicity range (HeLa cells [1]; 72 h) | IC50 (HeLa cells [1]; Homo sapiens, 48 h) [µM] | IC50 (HeLa cells [1]; Homo sapiens, 72 h) [µM] | Bax/Bcl-2 ratio [5] | RELATIVE RATIO OF CYTOSOL CYTC TO MITOCHONDRIAL CYT C IN HCT-116 CELLS [7] | Bax/Bcl-2 ratio [8] | JC10-green/JC10 red ratio in HeLa cells [9] | increase of percentage of apoptotic HCT-116 cells compared to control HCT-116 cells (HCT-116 cells [10]) [fold] | percentage of total apoptotic HCT-116 cells (sum of early and late) (HCT-116 cells [10]) [%] | JC10-green/JC10 red ratio in HCT-116 cells [11] | IC50 (MRC-5 cells; [14]) [µM] | IC50 (MRC-5 cells; [15]) [µM] | percentage of cytotoxic HCT-116 cells compared to HeLa cells (fold) (HCT-116 cells [2]) | percentage of cytotoxic HCT-116 cells compared to control MRC-5 cells (fold) (HCT-116 cells [2]) | Cytotoxicity range (HCT-116 cells [2]; HCT-116, 48 h) | Selectivity index (SI) (HCT-116 cells [2]; HCT-116, 48 h) | other results
1 | N.N.[Cl][Pt][Cl] [CP, Cisplatin, reference compound] | 42.38 | – | – | – | – | – | – | – | – | – | – | – | – | – | – | – | – | – | – | – | IC50 (HeLa cells [1]; 48 h): 16.5 µM; IC50 (HeLa cells [1]; 72 h): 3.62 ± 0.09 µM; IC50 (MRC-5 cells; MRC-5, 48 h): > 30 µM; IC50 (MRC-5 cells; MRC-5, 72 h): > 85 µM; IC50 (HCT-116 cells [2]; HCT-116, 48 h): 13.6 µM; IC50 (HCT-116 cells [2]; HCT-116, 72 h): 7.08 ± 0.13 µM
2 | COc1cc(/C=C/C(C)=O)ccc1OCC(=O)O [E1, (E)-2-(2-Methoxy-4-(3-oxobut-1-en-1-yl)phenoxy)acetic acid] | 43.03 | 50.4 | 8.67 | 3.12–39.24% | 39.35–61% | 17.3 ± 1.19 | 3.59 ± 0.03 | 1.8 | 1.2 | 1.1 | 1.4 | 8.5 | 59.5 | 1.6 | > 150 | > 65 | 1.8–3.6 fold | 4.1–4.4 fold | 11.23–72.91% | 24.75 | MFI of active caspase-3 in HeLa (fold change) [6]: 1.9 fold change; Bcl-2 protein expression vs control cells [8]: decreased; MFI of active caspase-3 in HCT-116 (fold change) [12]: 2.1 fold change; Cytotoxicity range (HCT-116 cells [2]; HCT-116, 72 h): 65.85–73.44%; Selectivity index (SI) (HCT-116 cells [2]; HCT-116, 72 h): 58.03; IC50 (HCT-116 cells [2]; Homo sapiens, HCT-116, 48 h): 6.06 ± 0.96 µM; IC50 (HCT-116 cells [2]; Homo sapiens, HCT-116, 72 h): 1.12 ± 0.01 µM; % OF HELA CELLS, G2/M (HeLa cells [13]): 66.9%
3 | COc1cc(/C=C/C(=O)C(C)C)ccc1OCC(=O)O [E2, (E)-2-(2-Methoxy-4-(4-methyl-3-oxopent-1-en-1-yl)phenoxy)acetic acid] | 54.02 | 56.1 | 14.96 | 4.74–51.94% | 32.98–71.66% | 13.4 ± 1.43 | 3.43 ± 0.09 | 1.9 | 1.5 | 1.4 | 1.9 | 8.8 | 61.6 | 2.15 | > 200 | > 90 | 1.3–2.3 fold | 2.9–5.2 fold | 10.87–71.88% | 39.22 | Selectivity index (SI) (HeLa cells [1]; 72 h): 26.23; MFI of active caspase-3 in HeLa (fold change) [6]: 2 fold change; Bcl-2 protein expression vs control cells [8]: decreased; MFI of active caspase-3 in HCT-116 (fold change) [12]: 2.4 fold change; Cytotoxicity range (HCT-116 cells [2]; HCT-116, 72 h): 65.23–72.73%; Selectivity index (SI) (HCT-116 cells [2]; HCT-116, 72 h): 100.63; IC50 (HCT-116 cells [2]; Homo sapiens, HCT-116, 48 h): 5.1 ± 0.92 µM; IC50 (HCT-116 cells [2]; Homo sapiens, HCT-116, 72 h): 0.9 ± 0.02 µM; % OF HELA CELLS, G2/M (HeLa cells [13]): 66%
4 | COc1cc(/C=C/C(=O)CC(C)C)ccc1OCC(=O)O [E3, (E)-2-(2-Methoxy-4-(5-methyl-3-oxohex-1-en-1-yl)phenoxy)acetic acid] | 35.63 | 54.1 | 5.50 | 5.47–33.95% | 40.39–59.92% | 18.2 ± 1.33 | 3.96 ± 0.1 | 1.6 | 1.1 | 0.9 | 1.3 | 7.4 | 51.68 | 1.4 | > 100 | > 70 | 2.05–2.1 fold | 4.4–6.9 fold | 11.23–75.08% | 14.71 | Selectivity index (SI) (HeLa cells [1]; 72 h): 17.67; Cytotoxicity range (HCT-116 cells [2]; HCT-116, 72 h): 66.85–70.44%; Selectivity index (SI) (HCT-116 cells [2]; HCT-116, 72 h): 42.68; IC50 (HCT-116 cells [2]; Homo sapiens, HCT-116, 48 h): 6.8 ± 1.01 µM; IC50 (HCT-116 cells [2]; Homo sapiens, HCT-116, 72 h): 1.64 ± 0.01 µM; % OF HELA CELLS, G2/M (HeLa cells [13]): 58.3%

From publication PMC11505670, “Four newly synthesized enones induce mitochondrial-mediated apoptosis and G2/M cell cycle arrest in colorectal and cervical cancer cells” (RSC Advances, 2024)
